Source: the supplement of paper PMC8671470

Tested on: THP-1
Assay: cell viability (% survival relative to DMSO control, bortezomib = 0%); higher = less cytotoxic
Conditions: 1 nM; 72 h
Procedure, shortened: (§1)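 Reported values are percent survival from duplicate wells, averaged. Fifteen myeloid leukaemia cell lines were treated in 384-well plates with compounds at 1, 10, 100, 1000 or 10000 nM for 72 h at 37 °C in 5% CO2. Signals from CellTiter-Glo luminescence were scaled with vehicle as 100% and a 10 µM positive control as 0%.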

Structure (SMILES)	cell viability [%]
C=C1NC(=O)c2cc(CN(C)c3ccc(C(=O)N[C@@H](CCC(=O)O)C(=O)O)s3)ccc2N1 [Raltitrexed]	92.9
CNC(=C[N+](=O)[O-])NCCSCc1ccc(CN(C)C)o1 [Ranitidine]	105
C#CCN[C@@H]1CCc2ccccc21 [Rasagiline]	102
NC(CCC(=O)NC(CSCc1ccc(Br)cc1)C(=O)NCC(=O)OC1CCCC1)C(=O)OC1CCCC1 (centres undefined) [S-para-Bromobenzylglutathione cyclopentyl diester]	103
COc1cc(C2Oc3cc(C4Oc5cc(O)cc(O)c5C(=O)C4O)ccc3OC2CO)ccc1O (centres undefined) [Silibinin]	99.3
Fc1ccc(CNc2ncnc3ccc(F)cc23)cc1 [Spautin 1]	95.5
Cn1c2cc(S(C)=O)sc2c2cnn(Cc3cccc(N)c3)c(=O)c21 (centres undefined) [TEPP-46]	101
CCCCCCCCCCCCCCOc1ccc(C(=O)O)o1 [TOFA]	98.2
CN1CC(=O)N2[C@H](c3ccc4c(c3)OCO4)c3[nH]c4ccccc4c3C[C@@H]2C1=O [Tadalafil]	96.7

Same assay, conditions: 10 nM; 72 h

Structure (SMILES)	cell viability [%]
CC(C)(F)C[C@H](N[C@@H](c1ccc(-c2ccc(S(C)(=O)=O)cc2)cc1)C(F)(F)F)C(=O)NC1(C#N)CC1 [Odanacatib]	99.6
Nc1nc(O)c2c(CCc3ccc(C(=O)N[C@@H](CCC(=O)O)C(=O)O)cc3)c[nH]c2n1 [Pemetrexed]	96
C=C1NC(=O)c2cc(CN(C)c3ccc(C(=O)N[C@@H](CCC(=O)O)C(=O)O)s3)ccc2N1 [Raltitrexed]	118
CNC(=C[N+](=O)[O-])NCCSCc1ccc(CN(C)C)o1 [Ranitidine]	103
C#CCN[C@@H]1CCc2ccccc21 [Rasagiline]	102
NC(CCC(=O)NC(CSCc1ccc(Br)cc1)C(=O)NCC(=O)OC1CCCC1)C(=O)OC1CCCC1 (centres undefined) [S-para-Bromobenzylglutathione cyclopentyl diester]	97.5
COc1cc(C2Oc3cc(C4Oc5cc(O)cc(O)c5C(=O)C4O)ccc3OC2CO)ccc1O (centres undefined) [Silibinin]	95.5
Fc1ccc(CNc2ncnc3ccc(F)cc23)cc1 [Spautin 1]	103
Cn1c2cc(S(C)=O)sc2c2cnn(Cc3cccc(N)c3)c(=O)c21 (centres undefined) [TEPP-46]	100
CCCCCCCCCCCCCCOc1ccc(C(=O)O)o1 [TOFA]	101
CN1CC(=O)N2[C@H](c3ccc4c(c3)OCO4)c3[nH]c4ccccc4c3C[C@@H]2C1=O [Tadalafil]	97.9

Same assay, conditions: 100 nM; 72 h

Structure (SMILES)	cell viability [%]
CC(C)(F)C[C@H](N[C@@H](c1ccc(-c2ccc(S(C)(=O)=O)cc2)cc1)C(F)(F)F)C(=O)NC1(C#N)CC1 [Odanacatib]	100
Nc1nc(O)c2c(CCc3ccc(C(=O)N[C@@H](CCC(=O)O)C(=O)O)cc3)c[nH]c2n1 [Pemetrexed]	101
C=C1NC(=O)c2cc(CN(C)c3ccc(C(=O)N[C@@H](CCC(=O)O)C(=O)O)s3)ccc2N1 [Raltitrexed]	61.4
CNC(=C[N+](=O)[O-])NCCSCc1ccc(CN(C)C)o1 [Ranitidine]	98.2
C#CCN[C@@H]1CCc2ccccc21 [Rasagiline]	103
NC(CCC(=O)NC(CSCc1ccc(Br)cc1)C(=O)NCC(=O)OC1CCCC1)C(=O)OC1CCCC1 (centres undefined) [S-para-Bromobenzylglutathione cyclopentyl diester]	96.8
COc1cc(C2Oc3cc(C4Oc5cc(O)cc(O)c5C(=O)C4O)ccc3OC2CO)ccc1O (centres undefined) [Silibinin]	107
Fc1ccc(CNc2ncnc3ccc(F)cc23)cc1 [Spautin 1]	103
Cn1c2cc(S(C)=O)sc2c2cnn(Cc3cccc(N)c3)c(=O)c21 (centres undefined) [TEPP-46]	97.5
CCCCCCCCCCCCCCOc1ccc(C(=O)O)o1 [TOFA]	97.9
CN1CC(=O)N2[C@H](c3ccc4c(c3)OCO4)c3[nH]c4ccccc4c3C[C@@H]2C1=O [Tadalafil]	94.9

Same assay, conditions: 1000 nM; 72 h

Structure (SMILES)	cell viability [%]
CC(C)(F)C[C@H](N[C@@H](c1ccc(-c2ccc(S(C)(=O)=O)cc2)cc1)C(F)(F)F)C(=O)NC1(C#N)CC1 [Odanacatib]	94.9
Nc1nc(O)c2c(CCc3ccc(C(=O)N[C@@H](CCC(=O)O)C(=O)O)cc3)c[nH]c2n1 [Pemetrexed]	61.7
C=C1NC(=O)c2cc(CN(C)c3ccc(C(=O)N[C@@H](CCC(=O)O)C(=O)O)s3)ccc2N1 [Raltitrexed]	40.7
CNC(=C[N+](=O)[O-])NCCSCc1ccc(CN(C)C)o1 [Ranitidine]	99.6
C#CCN[C@@H]1CCc2ccccc21 [Rasagiline]	96
NC(CCC(=O)NC(CSCc1ccc(Br)cc1)C(=O)NCC(=O)OC1CCCC1)C(=O)OC1CCCC1 (centres undefined) [S-para-Bromobenzylglutathione cyclopentyl diester]	101
COc1cc(C2Oc3cc(C4Oc5cc(O)cc(O)c5C(=O)C4O)ccc3OC2CO)ccc1O (centres undefined) [Silibinin]	98.9
Fc1ccc(CNc2ncnc3ccc(F)cc23)cc1 [Spautin 1]	106
Cn1c2cc(S(C)=O)sc2c2cnn(Cc3cccc(N)c3)c(=O)c21 (centres undefined) [TEPP-46]	104
CCCCCCCCCCCCCCOc1ccc(C(=O)O)o1 [TOFA]	86.4
CN1CC(=O)N2[C@H](c3ccc4c(c3)OCO4)c3[nH]c4ccccc4c3C[C@@H]2C1=O [Tadalafil]	98.4

Same assay, conditions: 10000 nM; 72 h

Structure (SMILES)	cell viability [%]
CC(C)(F)C[C@H](N[C@@H](c1ccc(-c2ccc(S(C)(=O)=O)cc2)cc1)C(F)(F)F)C(=O)NC1(C#N)CC1 [Odanacatib]	95.7
Nc1nc(O)c2c(CCc3ccc(C(=O)N[C@@H](CCC(=O)O)C(=O)O)cc3)c[nH]c2n1 [Pemetrexed]	56.8
C=C1NC(=O)c2cc(CN(C)c3ccc(C(=O)N[C@@H](CCC(=O)O)C(=O)O)s3)ccc2N1 [Raltitrexed]	46.1
CNC(=C[N+](=O)[O-])NCCSCc1ccc(CN(C)C)o1 [Ranitidine]	102
C#CCN[C@@H]1CCc2ccccc21 [Rasagiline]	101
NC(CCC(=O)NC(CSCc1ccc(Br)cc1)C(=O)NCC(=O)OC1CCCC1)C(=O)OC1CCCC1 (centres undefined) [S-para-Bromobenzylglutathione cyclopentyl diester]	92
COc1cc(C2Oc3cc(C4Oc5cc(O)cc(O)c5C(=O)C4O)ccc3OC2CO)ccc1O (centres undefined) [Silibinin]	95.9
Fc1ccc(CNc2ncnc3ccc(F)cc23)cc1 [Spautin 1]	79.1
Cn1c2cc(S(C)=O)sc2c2cnn(Cc3cccc(N)c3)c(=O)c21 (centres undefined) [TEPP-46]	99.7
CCCCCCCCCCCCCCOc1ccc(C(=O)O)o1 [TOFA]	88.8
CN1CC(=O)N2[C@H](c3ccc4c(c3)OCO4)c3[nH]c4ccccc4c3C[C@@H]2C1=O [Tadalafil]	96.6

Tested on: KG-1
Assay: as above
Conditions: 1 nM; 72 h
Procedure, shortened: as §1

Structure (SMILES)	cell viability [%]
CC(C)(F)C[C@H](N[C@@H](c1ccc(-c2ccc(S(C)(=O)=O)cc2)cc1)C(F)(F)F)C(=O)NC1(C#N)CC1 [Odanacatib]	103
Nc1nc(O)c2c(CCc3ccc(C(=O)N[C@@H](CCC(=O)O)C(=O)O)cc3)c[nH]c2n1 [Pemetrexed]	92
C=C1NC(=O)c2cc(CN(C)c3ccc(C(=O)N[C@@H](CCC(=O)O)C(=O)O)s3)ccc2N1 [Raltitrexed]	101
CNC(=C[N+](=O)[O-])NCCSCc1ccc(CN(C)C)o1 [Ranitidine]	104
C#CCN[C@@H]1CCc2ccccc21 [Rasagiline]	88.3
NC(CCC(=O)NC(CSCc1ccc(Br)cc1)C(=O)NCC(=O)OC1CCCC1)C(=O)OC1CCCC1 (centres undefined) [S-para-Bromobenzylglutathione cyclopentyl diester]	145
COc1cc(C2Oc3cc(C4Oc5cc(O)cc(O)c5C(=O)C4O)ccc3OC2CO)ccc1O (centres undefined) [Silibinin]	91.3
Fc1ccc(CNc2ncnc3ccc(F)cc23)cc1 [Spautin 1]	108
Cn1c2cc(S(C)=O)sc2c2cnn(Cc3cccc(N)c3)c(=O)c21 (centres undefined) [TEPP-46]	116
CCCCCCCCCCCCCCOc1ccc(C(=O)O)o1 [TOFA]	95.8
CN1CC(=O)N2[C@H](c3ccc4c(c3)OCO4)c3[nH]c4ccccc4c3C[C@@H]2C1=O [Tadalafil]	107
